# Laboratory results as given in patent US12533349B2, “Drug formulations for reservoir-based delivery” (Medtronic, Inc., priority 2020, dated 2026).
# Columns and labels:
# Type in all cases: physicochemical
# [1] = Differential HSP between drug and drug-contacting material of SynchroMed II infusion device; settings: bupivacaine vs drug-contacting material (silicone); less than 7 is considered high risk of migration
# From the text: (§1) Without intending to be bound by theory, it is believed that HSP provides a thermodynamic indication of whether a compound will migrate into a component of the reservoir-based delivery device, such as a polymeric component of the reservoir-based delivery device. Greater differences between HSPs of the compound and the component tend to result in lower amounts of migration.
# For purposes of the present disclosure, differential HSP values of less than 7 are considered to be of high risk, HSP values between 7 and 10 are considered to be of medium risk, and HSP values of greater than 10 are considered to be of low risk for the drug to migrate into the component of the reservoir-based delivery device. Differential HSP values may be determined as described in Kitak, et al. (2015), “Determination of Solubility Parameters of Ibuprofen and Ibuprofen Lysinate,” Molecules, 20:21549-21568. […]
# In the following, non-limiting example development of a bupivacaine formulation for use in a reservoir-based delivery device is shown. The drug delivery device for which compatibility was determined was Medtronic, Inc.'s SynchroMed® II implantable infusion device. […]
# The differential HSP value was determined to be 4.2, which is considered to be high risk of the drug migrating into the drug-contacting material.
# [2] = Potential for chemical reaction between functional groups of drug and drug-contacting material; settings: drug-contacting material silicone
# From the text: The presence of certain functional groups on the drug or components of the formulation and certain functional groups on drug formulation contacting materials of the reservoir-based delivery devices may result in concern for chemical reaction between one or more ingredients of the formulation and the drug formulation contacting materials.
# For example, silyl ether groups which may be present on silicone drug formulation contacting materials may react with amine groups, phosphate groups, or carboxylate groups of ingredients of the drug formulation.
# In the following, non-limiting example development of a bupivacaine formulation for use in a reservoir-based delivery device is shown. The drug delivery device for which compatibility was determined was Medtronic, Inc.'s SynchroMed® II implantable infusion device. The material of the component of the SynchroMed® II for which compatibility was tested was silicone. Bupivacaine may migrate into silicone without consideration of formulation.
# In addition, it was determined that bupivacaine has a high risk of potential for chemical reaction between functional groups in bupivacaine and the functional groups in the drug-contacting material.
# [3] = Hansen Solubility Parameters (HSP) determination; settings: Hansen Solubility Parameter
# From the text: as §1
# For purposes of the present disclosure, differential HSP values of less than 7 are considered to be of high risk, HSP values between 7 and 10 are considered to be of medium risk, and HSP values of greater than 10 are considered to be of low risk for the drug to migrate into the component of the reservoir-based delivery device. Differential HSP values may be determined as described in Kitak, et al. (2015), “Determination of Solubility Parameters of Ibuprofen and Ibuprofen Lysinate,” Molecules, 20:21549-21568. One useful measurement of differential HSP values is described in Equation (4) of Kitak, et al. on page 21550. Other useful measurements include Equations (5), (6), and (7) of Kitak, et al. on pages 21550-21551.
# The HSP of bupivacaine and the drug contacting material (silicone) were determined.
smiles,measurement,setting,value
CCCCN1CCCCC1C(=O)Nc1c(C)cccc1C (centres unmarked) [bupivacaine],differential HSP value,[1],4.2
same,risk of potential for chemical reaction between functional groups in bupivacaine and in the drug-contacting material,[2],high risk
same,HSP δD,[3]; δD component,18.1
same,HSP δH,[3]; δH component,6.03
same,HSP δP,[3]; δP component,6.46
